According to US11098007B2, “Crystal of amino acid salt of 3-hydroxyisovaleric acid and production method thereof” (KYOWA HAKKO BIO CO., LTD., priority 2016, dated 2021):
Like-named read-outs stand apart in the source and are kept apart here.

Tests used:
surgically stressed rats [1] = assay: Effect on body electrolyte: urinary electrolyte after continuous administration in glucose-electrolytes infusion solution (SOLITA-T No. 3)
Method: (§1) The solution was continuously administered to surgically stressed rats underwent intestinal tract scratch operation at a normal dose (240 mL/kg/day) for 3 days. On the final day of administration, urine was collected by 24-hour urine collection and measured for the urinary electrolyte concentration.

surgically stressed rats [2] = conditions: rat, in vivo
Method: as §1

[3] = HMB final concentration 0.42 weight/volume % in SOLITA-T No. 3, 240 mL/kg/day for 3 days, 24-hour urine of the final day

| Structure (SMILES) | Urinary calcium excretion amount (surgically stressed rats [1]; [3]) [mg/day] | Urinary phosphate excretion amount (surgically stressed rats [1]; [3]) [mg/day] | Electrolyte abnormality (urinary calcium, urinary phosphate) in combined administration with SOLITA-T No. 3 infusion solution (surgically stressed rats [1]; in words) | Electrolyte abnormality (urinary calcium, urinary phosphate) in combined administration with SOLITA-T No. 3 infusion solution (surgically stressed rats [2]) |
| --- | --- | --- | --- | --- |
| CC(C)(O)CC(=O)O.N=C(N)NCCCC(N)C(=O)O (stereo not shown) [Arginine salt nonhydrate of HMB, arginine salt nonhydrate of HMB] | 0.24 | 19.1 | does not induce the above electrolyte abnormality | – |
| CC(C)(O)CC(=O)[O-].CC(C)(O)CC(=O)[O-].[Ca+2] [Calcium salt hydrate of HMB, calcium salt hydrate of HMB] | – | – | – | induces the increase in urinary calcium and the decrease in urinary phosphate excretion |
